Reference: PubChem BioAssay (NCI)
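48-hour exposure; five concentrations; linearly interpolated endpoints. TGI denotes the concentration required for complete inhibition of growth.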

Legend:
Test in all cases: NCI tumour cell line growth inhibition, 48 h
A549 NSCLC = test system: A549 NSCLC
HT29 colon = test system: HT29 colon
ACHN renal = test system: ACHN renal
DLD-1 colon = test system: DLD-1 colon
NCI-H226 lung = test system: NCI-H226 lung
SF-268 CNS = test system: SF-268 CNS
OVCAR-3 ovarian = test system: OVCAR-3 ovarian
A498 renal = test system: A498 renal
SNB-75 CNS = test system: SNB-75 CNS
NCI-H522 lung = test system: NCI-H522 lung
SNB-78 CNS = test system: SNB-78 CNS
HCT-116 colon = test system: HCT-116 colon
M19-MEL melanoma = test system: M19-MEL melanoma
IGROV1 ovarian = test system: IGROV1 ovarian
HOP-92 NSCLC = test system: HOP-92 NSCLC
LOX IMVI melanoma = test system: LOX IMVI melanoma
SW-620 colon = test system: SW-620 colon
HCT-15 colon = test system: HCT-15 colon
M14 melanoma = test system: M14 melanoma
SF-295 CNS = test system: SF-295 CNS
SK-OV-3 ovarian = test system: SK-OV-3 ovarian
NCI-H23 lung = test system: NCI-H23 lung
CCRF-CEM leukemia = test system: CCRF-CEM leukemia
LXFL 529 NSCLC = test system: LXFL 529 NSCLC
MALME-3M melanoma = test system: MALME-3M melanoma
COLO 205 colon = test system: COLO 205 colon
EKVX NSCLC = test system: EKVX NSCLC
SF-539 CNS = test system: SF-539 CNS
RPMI-8226 leukemia = test system: RPMI-8226 leukemia
DMS 273 small cell lung = test system: DMS 273 small cell lung
UACC-62 melanoma = test system: UACC-62 melanoma
SNB-19 CNS = test system: SNB-19 CNS
TK-10 renal = test system: TK-10 renal
KM20L2 colon = test system: KM20L2 colon
HL-60(TB) leukemia = test system: HL-60(TB) leukemia
K-562 leukemia = test system: K-562 leukemia
SK-MEL-28 melanoma = test system: SK-MEL-28 melanoma
HCC-2998 colon = test system: HCC-2998 colon
XF 498 CNS = test system: XF 498 CNS
SK-MEL-5 melanoma = test system: SK-MEL-5 melanoma
OVCAR-8 ovarian = test system: OVCAR-8 ovarian
786-0 renal = test system: 786-0 renal
UACC-257 melanoma = test system: UACC-257 melanoma
KM12 colon = test system: KM12 colon
UO-31 renal = test system: UO-31 renal
DMS 114 small cell lung = test system: DMS 114 small cell lung
OVCAR-5 ovarian = test system: OVCAR-5 ovarian
NCI-H460 lung = test system: NCI-H460 lung
OVCAR-4 ovarian = test system: OVCAR-4 ovarian
HOP-18 NSCLC = test system: HOP-18 NSCLC
U251 CNS = test system: U251 CNS
CAKI-1 renal = test system: CAKI-1 renal
RXF 393 renal = test system: RXF 393 renal
MOLT-4 leukemia = test system: MOLT-4 leukemia
HOP-62 NSCLC = test system: HOP-62 NSCLC
SK-MEL-2 melanoma = test system: SK-MEL-2 melanoma
SN12C renal = test system: SN12C renal

Molecule COc1cc2c(cc1O)[C@H](C)C(c1ccccc1OC)O2 (some centres undefined) has a TGI (A549 NSCLC) of over 100 µM, a TGI (HT29 colon) of 61.3 µM and a TGI (ACHN renal) of 23.9 µM. It also gave a TGI (DLD-1 colon) of over 100 µM, a TGI (NCI-H226 lung) of 72.3 µM and a TGI (SF-268 CNS) of over 100 µM. It also gave a TGI (OVCAR-3 ovarian) of over 100 µM, a TGI (A498 renal) of 56 µM and a TGI (SNB-75 CNS) of 6.48 µM. It also gave a TGI (NCI-H522 lung) of 9.25 µM, a TGI (SNB-78 CNS) of over 100 µM and a TGI (HCT-116 colon) of 15.4 µM. It also gave a TGI (M19-MEL melanoma) of over 100 µM, a TGI (IGROV1 ovarian) of over 100 µM and a TGI (HOP-92 NSCLC) of 62.8 µM. The TGI (LOX IMVI melanoma) was 26.7 µM, the TGI (SW-620 colon) was 12.2 µM and the TGI (HCT-15 colon) was 12.1 µM. The TGI (M14 melanoma) was over 100 µM, the TGI (SF-295 CNS) was 22.9 µM and the TGI (SK-OV-3 ovarian) was over 100 µM. It also gave a TGI (NCI-H23 lung) of over 100 µM, a TGI (CCRF-CEM leukemia) of 30.6 µM and a TGI (LXFL 529 NSCLC) of 27.1 µM. For the same molecule, the TGI (MALME-3M melanoma) was over 100 µM, the TGI (COLO 205 colon) was 27 µM and the TGI (EKVX NSCLC) was over 100 µM. The TGI (SF-539 CNS) was 41.5 µM, the TGI (RPMI-8226 leukemia) was 13.9 µM and the TGI (DMS 273 small cell lung) was over 100 µM. For the same molecule, the TGI (UACC-62 melanoma) was over 100 µM, the TGI (SNB-19 CNS) was over 100 µM and the TGI (TK-10 renal) was over 100 µM. The TGI (KM20L2 colon) was 24.4 µM, the TGI (HL-60(TB) leukemia) was 7.5 µM and the TGI (K-562 leukemia) was over 100 µM. The TGI (SK-MEL-28 melanoma) was over 100 µM, the TGI (HCC-2998 colon) was 90 µM and the TGI (XF 498 CNS) was 24 µM. It also gave a TGI (SK-MEL-5 melanoma) of 19.7 µM, a TGI (OVCAR-8 ovarian) of 57.8 µM and a TGI (786-0 renal) of 50.5 µM. For the same molecule, the TGI (UACC-257 melanoma) was over 100 µM, the TGI (KM12 colon) was over 100 µM and the TGI (UO-31 renal) was 70.2 µM. For the same molecule, the TGI (DMS 114 small cell lung) was 11 µM, the TGI (OVCAR-5 ovarian) was over 100 µM and the TGI (NCI-H460 lung) was 4.2 µM. The TGI (OVCAR-4 ovarian) was 60.2 µM, the TGI (HOP-18 NSCLC) was over 100 µM and the TGI (U251 CNS) was 8.01 µM. It also gave a TGI (CAKI-1 renal) of 69.2 µM and a TGI (RXF 393 renal) of 93.6 µM.

In the case of O=C(CSc1nnc(Cc2ccccc2)o1)Nc1ccccc1Cl, the TGI (A549 NSCLC) was over 100 µM, the TGI (HT29 colon) was over 100 µM and the TGI (ACHN renal) was over 100 µM. The TGI (DLD-1 colon) was over 100 µM, the TGI (NCI-H226 lung) was over 100 µM and the TGI (SF-268 CNS) was over 100 µM. The TGI (OVCAR-3 ovarian) was over 100 µM, the TGI (A498 renal) was over 100 µM and the TGI (NCI-H522 lung) was over 100 µM. It also gave a TGI (SNB-78 CNS) of over 100 µM, a TGI (HCT-116 colon) of over 100 µM and a TGI (M19-MEL melanoma) of over 100 µM. It also gave a TGI (IGROV1 ovarian) of over 100 µM, a TGI (LOX IMVI melanoma) of over 100 µM and a TGI (SW-620 colon) of over 100 µM. The TGI (HCT-15 colon) was over 100 µM, the TGI (M14 melanoma) was over 100 µM and the TGI (SF-295 CNS) was over 100 µM. For the same molecule, the TGI (SK-OV-3 ovarian) was over 100 µM, the TGI (NCI-H23 lung) was over 100 µM and the TGI (CCRF-CEM leukemia) was over 100 µM. The TGI (LXFL 529 NSCLC) was over 100 µM, the TGI (MALME-3M melanoma) was over 100 µM and the TGI (COLO 205 colon) was over 100 µM. It also gave a TGI (MOLT-4 leukemia) of over 100 µM, a TGI (SF-539 CNS) of over 100 µM and a TGI (RPMI-8226 leukemia) of over 100 µM. The TGI (DMS 273 small cell lung) was over 100 µM, the TGI (HOP-62 NSCLC) was over 100 µM and the TGI (UACC-62 melanoma) was over 100 µM. It also gave a TGI (SNB-19 CNS) of over 100 µM, a TGI (TK-10 renal) of over 100 µM and a TGI (KM20L2 colon) of over 100 µM. It also gave a TGI (SK-MEL-2 melanoma) of over 100 µM, a TGI (HL-60(TB) leukemia) of over 100 µM and a TGI (K-562 leukemia) of over 100 µM. The TGI (SK-MEL-28 melanoma) was over 100 µM, the TGI (HCC-2998 colon) was over 100 µM and the TGI (SN12C renal) was over 100 µM. It also gave a TGI (SK-MEL-5 melanoma) of over 100 µM, a TGI (OVCAR-8 ovarian) of over 100 µM and a TGI (786-0 renal) of over 100 µM. It also gave a TGI (KM12 colon) of over 100 µM, a TGI (UO-31 renal) of over 100 µM and a TGI (DMS 114 small cell lung) of over 100 µM. It also gave a TGI (OVCAR-5 ovarian) of over 100 µM, a TGI (NCI-H460 lung) of over 100 µM and a TGI (OVCAR-4 ovarian) of over 100 µM. For the same molecule, the TGI (HOP-18 NSCLC) was over 100 µM, the TGI (U251 CNS) was over 100 µM and the TGI (CAKI-1 renal) was over 100 µM.
